The data set is described as follows: Storage stability of capsules, degradants determined by high-performance liquid chromatography. The data set is classed as physicochemical. To be noted: Initial (before storage); HPLC. On the procedure:
The capsules in Examples 16 to 17 and Comparative Example 6 were stored for 1 week in an open system under an environment at a temperature of 60° C. and a relative humidity of 75%, followed by determining the production of the degradants with high-performance liquid chromatography. In the capsule formulation in Comparative Example 6, in which neither calcium carbonate nor magnesium carbonate was mixed, an amount of the degradants was increased. In contrast, in the capsules in Examples 16 to 17, in which calcium carbonate or magnesium carbonate was mixed, no increase in amount of the degradants was observed (Table 8).

This note sets out measurements from US12508313B2, “Quinoline derivative-containing pharmaceutical composition” (Eisai R&D Management Co., Ltd., priority 2009, dated 2025).

Regarding `COc1cc2nccc(Oc3ccc(NC(=O)NC4CC4)c(Cl)c3)c2cc1C(N)=O.CS(=O)(=O)O` [Compound A, 4-(3-chloro-4-(cyclopropylaminocarbonyl)aminophenoxy)-7-methoxy-6-quinolinecarboxamide methanesulfonate], the “Quantitated compound A (%)” value was found to be 98.38%.
